Consider 1 compound from the SangsterLogP compilation.

The nature of the data set: method code SF-CR, from PMID: 5159517.

One may read the logP as the decadic logarithm of the partition coefficient of the neutral form, usually between octanol and water. The compound `COc1cnc(NS(=O)(=O)c2ccc(N)cc2)nc1` returned a logP of 0.41.
